Assay results taken from patent US20110003760A1, “ABNORMAL PROTEIN REMOVING METHOD” (priority 2005, published 2011).

System: carbonylated protein in three-dimensional human skin model TESTSKIN (LSE-high)
Assay: Carbonylated protein in three-dimensional human skin model, Western blotting (DNPH)
Assay type: cell-based
Conditions: for Relative photographic density (carbonylated protein): untreated without UV = 100%
Method: Three-dimensional human skin models are widely used in safety evaluation and effectiveness evaluation as a simulated model of human skin. In this test, TESTSKIN (LSE-high) (Toyobo Co., Ltd.) was used as a three-dimensional human skin model.
A culture medium was added to the outer well of TESTSKIN (LSE-high) and cultured for 24 hours. UVA and UVB were irradiated at 10 J/cm^2 and 100 mJ/cm^2, respectively. UVB was irradiated for 2 minutes at a UV intensity of […] using FL20S-E-30/DMR (Clinical Supply Co., Ltd.) to achieve a total irradiation dose of 100 mJ/cm^2. UV intensity was measured using a UV MONITOR MS-211-I (Eiko Instruments Co., Ltd.).
As a control group, three-dimensional human skin models not irradiated with UVA or UVB were also prepared.
Thereafter, the culture solution was changed and each agent was added by 100 μl onto the tissues in the assay ring, after which the medium was cultured for 36 hours. Thereafter, the tissues were collected and a tissue extraction solution (50 mM Tris-HCl (pH 7.5), 0.5% (Octylphenoxy) polyethoxyethanol (Sigma-Aldrich Corp.)) was added, and then the mixture was homogenized using a Teflon (registered trademark) homogenizer. The homogenized mixture was centrifuged for 30 minutes at 10,000×G to remove tissue fragments, and then dialyzed overnight in distilled water at 4° C. Thereafter, the dialyzed mixture was freeze-dried to remove water. A tissue extraction solution was added to obtain a ×20 concentrate, and this concentrate was used as a three-dimensional skin model extract sample.
In this test, 2,4-dinitrophenyl hydrazine (DNPH), which specifically bonds with the carbonyl group in the protein produced by oxidation damage, was used to label carbonylated protein, and then detection was performed using an anti-DNPH antibody that specifically bonds with DNPH.
The specific method is explained below. DNPH protein was detected from the protein in the sample by means of Western blotting using a DNPH kit (Oxi Blot™ Protein Oxidation Detection Kit; Chemicon International Inc.). Detection was performed by exposing PVDF membranes to light using a […] (ECL PLUS; Amarsham PLC), and an automatic developer (FPM100; FUJIFILM Medical Co., Ltd.) was used to transfer images. A densitometer (Molecular Dynamics Inc.) was then used to analyze the images to quantify the photographic density. For your information, protein in the sample was reduced and measured as deemed appropriate. In this case, 2-mercaptoethanol was used as a reducing agent and the mixture was heated for 5 minutes at 100° C. to sever the disulfide bond.
Based on the above results, it is clear that Bletilla striata extract and silybin suppress accumulation of carbonylated protein in a three-dimensional skin model in a manner dependent on the concentration. Accordingly, whether or not a combined use of Bletilla striata extract and silybin would synergistically suppress accumulation of carbonylated protein was evaluated. Also, whether or not a combined use of silybin and soybean saponin, a substance known to have an action to suppress accumulation of carbonylated protein, would synergistically suppress accumulation of carbonylated protein was evaluated. As a result, regardless of whether or not UV light was irradiated using silybin (3 μM) in combination with Bletilla striata extract (0.1%; final extract concentration of 0.001%), or using silybin (3 μM) in combination with soybean saponin (0.0005%), suppressed the accumulation of carbonylated protein synergistically compared to when a sample was treated with silybin (3 μM), Bletilla striata extract (0.1%; final extract concentration of 0.001%) or soybean saponin (0.0005%) alone, as far as accumulation of carbonylated protein in a three-dimensional skin model was concerned (FIG. 7 and Table 7; results of non-reduced protein).

## COc1cc(C2Oc3cc([C@H]4Oc5cc(O)cc(O)c5C(=O)[C@@H]4O)ccc3OC2CO)ccc1O (stereo partly shown) [Silybin, silybin]
Table 7, non-reduced protein, head printed UV (−), silybin 3 μM, Bletilla striata extract 0.1%, soybean saponin 0.0005%, alone or combined
  Relative photographic density (carbonylated protein): 300%
Table 7, non-reduced protein, first column UV (−), silybin 3 μM, Bletilla striata extract 0.1%, soybean saponin 0.0005%, alone or combined
  Relative photographic density (carbonylated protein): 60%
non-reduced protein, 3 μM
  amount of carbonylated protein compared to the sample not given any treatment under UV irradiation: 30%
non-reduced protein, 10 μM
  amount of carbonylated protein compared to the sample not given any treatment under UV irradiation: 9%
non-reduced protein, silybin 3 μM, Bletilla striata extract 0.1%, soybean saponin 0.0005%, alone or combined
  amount of carbonylated protein compared to the sample not given any treatment under UV irradiation: 60%
non-reduced protein, treatment concentration 3 μM, UV (+)
  Relative photographic density (carbonylated protein): 95%
non-reduced protein, treatment concentration 3 μM, UV (−)
  Relative photographic density (carbonylated protein): 55%
non-reduced protein, treatment concentration 10 μM, UV (+)
  Relative photographic density (carbonylated protein): 30%
non-reduced protein, treatment concentration 10 μM, UV (−)
  Relative photographic density (carbonylated protein): 8%
Reduced protein, 3 μM
  amount of carbonylated protein compared to the sample not given any treatment under UV irradiation: 25%
Reduced protein, 10 μM
  amount of carbonylated protein compared to the sample not given any treatment under UV irradiation: 10%
Reduced protein, treatment concentration 3 μM, UV (+)
  Relative photographic density (carbonylated protein): 85%
Reduced protein, treatment concentration 3 μM, UV (−)
  Relative photographic density (carbonylated protein): 50%
Reduced protein, treatment concentration 10 μM, UV (+)
  Relative photographic density (carbonylated protein): 35%
Reduced protein, treatment concentration 10 μM, UV (−)
  Relative photographic density (carbonylated protein): 5%
Reduced protein, treatment concentration 10 μM, UV (−), listed as silybin
  Relative photographic density (carbonylated protein): 10%
